Legend:
barnyardgrass [1] = experiment: Test A pre-/postemergence herbicide test; format: in vivo, Echinochloa crus-galli
Method in brief: (§1)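 Seeds in loam–sand blend received preemergence directed soil spray; separately, plants 2–10 cm at one- to two-leaf stage received postemergence spray, both with test chemicals in non-phytotoxic solvent with surfactant. After ~10 days in greenhouse, injury rated visually against untreated controls, 0 (no effect) to 100 (complete control).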

kochia = experiment: Test A pre-/postemergence herbicide test; format: in vivo, Kochia scoparia
Method in brief: as §1

ragweed = experiment: Test A pre-/postemergence herbicide test; format: in vivo, Ambrosia elatior
Method in brief: as §1

ryegrass, Italian = experiment: Test A pre-/postemergence herbicide test; format: in vivo, Lolium multiflorum
Method in brief: as §1

giant foxtail = experiment: Test A pre-/postemergence herbicide test; format: in vivo, Setaria faberii
Method in brief: as §1

pigweed = experiment: Test A pre-/postemergence herbicide test; format: in vivo, Amaranthus retroflexus
Method in brief: as §1

wheat = experiment: Test A pre-/postemergence herbicide test; format: in vivo, Triticum aestivum; conditions: Postemergence
Method in brief: as §1

corn = experiment: Test A pre-/postemergence herbicide test; format: in vivo, Zea mays; conditions: Postemergence
Method in brief: as §1

blackgrass = experiment: Test A postemergence herbicide test; format: in vivo, Alopecurus myosuroides
Method in brief: (§2)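 Plants at the one- to two-leaf stage, 2–10 cm tall, grown in loam/sand pots, received postemergence sprays of the test chemicals. After about 10 days in the greenhouse, injury was scored visually against untreated controls on a 0–100 scale (0 none, 100 complete control).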

galium = experiment: Test A postemergence herbicide test; format: in vivo, Galium aparine
Method in brief: as §2

rice = experiment: Test B flooded paddy test; format: in vivo, Oryza sativa; conditions: 500 g ai/ha, Flood; scale of 0 to 100 where 0 is no effect and 100 is complete control
Method in brief: (§3)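 Scoring: visual, compared with untreated controls, 0 = no effect through 100 = complete control, taken 13 to 15 days after treatment in the greenhouse. Compounds had been added to paddy water over soil flooded 3 cm deep at the plants' 2-leaf stage.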

sedge, umbrella = experiment: Test B flooded paddy test; format: in vivo, Cyperus difformis; conditions: 500 g ai/ha, Flood; scale of 0 to 100 where 0 is no effect and 100 is complete control
Method in brief: as §3

ducksalad = experiment: Test B flooded paddy test; format: in vivo, Heteranthera limosa; conditions: 500 g ai/ha, Flood; scale of 0 to 100 where 0 is no effect and 100 is complete control
Method in brief: as §3

barnyardgrass [2] = experiment: Test B flooded paddy test; format: in vivo, Echinochloa crus-galli; conditions: 500 g ai/ha, Flood; scale of 0 to 100 where 0 is no effect and 100 is complete control
Method in brief: as §3

[3] = 125 g ai/ha, visual rating, 0 to 100 scale, 0 no effect, 100 complete control, approximately 10 days, preemergence
[4] = Postemergence, 125 g ai/ha, 0 to 100 scale, 0 no effect, 100 complete control
[5] = preemergence, 500 g ai/ha, 0 to 100 scale (0 no effect, 100 complete control)
[6] = preemergence, 500 g ai/ha, 0 to 100 scale
[7] = 125 g ai/ha, 0 to 100 scale, 0 no effect, 100 complete control
[8] = Postemergence, 125 g ai/ha, visual rating on 0 to 100 scale (0 no effect, 100 complete control), approx. 10 days
[9] = Postemergence, 500 g ai/ha, 0 to 100 scale (0 no effect, 100 complete control)
[10] = Preemergence, 125 g ai/ha, 0 to 100 scale where 0 is no effect and 100 is complete control
[11] = preemergence, 500 g ai/ha, 0 to 100 scale, 0 is no effect and 100 is complete control
[12] = Preemergence, 500 g ai/ha, visual rating on 0 to 100 scale (0 no effect, 100 complete control)
[13] = 125 g ai/ha, visual rating on 0 to 100 scale (0 no effect, 100 complete control), approx. 10 days
[14] = 500 g ai/ha, 0 to 100 scale (0 no effect, 100 complete control)
[15] = Postemergence, 125 g ai/ha, 0 to 100 scale, 0 is no effect, 100 is complete control
[16] = 125 g ai/ha, 0 to 100 scale, 0 is no effect, 100 is complete control

## Cc1cc(C2CNC(=O)C2C(=O)Nc2ccccc2F)ccc1F (racemic) [Compound 139]
Barnyardgrass [1]; [3]
  Plant response rating, Barnyardgrass: 70
Barnyardgrass [1]; [4]
  Plant response rating, Barnyardgrass: 80
Barnyardgrass [1]; Postemergence, 500 g ai/ha
  Barnyardgrass plant response rating (0 to 100 scale, 0 is no effect, 100 is complete control): 90
Barnyardgrass [1]; [5]
  Plant response rating, Barnyardgrass: 90
kochia; [3]
  Plant response rating, Kochia: 0
kochia; [4]
  Plant response rating, Kochia: 0
kochia; Postemergence, 500 g ai/ha
  Kochia plant response rating (0 to 100 scale, 0 is no effect, 100 is complete control): 0
kochia; [6]
  Plant response rating, Kochia: 30
ragweed; [3]
  Plant response rating, Ragweed: 0
ragweed; [4]
  Plant response rating, Ragweed: 0
ragweed; Postemergence, 500 g ai/ha
  Ragweed plant response rating (0 to 100 scale, 0 is no effect, 100 is complete control): 0
ragweed; [6]
  Plant response rating, Ragweed: 0
ryegrass, Italian; [3]
  Plant response rating, Ryegrass, Italian: 0
ryegrass, Italian; [4]
  Plant response rating, Ryegrass, Italian: 0
ryegrass, Italian; Postemergence, 500 g ai/ha
  Ryegrass, Italian plant response rating (0 to 100 scale, 0 is no effect, 100 is complete control): 0
ryegrass, Italian; [6]
  Plant response rating, Ryegrass, Italian: 0
Giant foxtail; [3]
  Plant response rating, Foxtail, Giant: 50
Giant foxtail; [4]
  Plant response rating, Foxtail, Giant: 30
Giant foxtail; Postemergence, 500 g ai/ha
  Foxtail, Giant plant response rating (0 to 100 scale, 0 is no effect, 100 is complete control): 30
Giant foxtail; [6]
  Plant response rating, Foxtail, Giant: 90
pigweed; [3]
  Plant response rating, Pigweed: 0
pigweed; [4]
  Plant response rating, Pigweed: 0
pigweed; Postemergence, 500 g ai/ha
  Pigweed plant response rating (0 to 100 scale, 0 is no effect, 100 is complete control): 0
pigweed; [6]
  Plant response rating, Pigweed: 20
wheat; [7]
  Plant response rating, Wheat: 0
wheat; 500 g ai/ha
  Wheat plant response rating (0 to 100 scale, 0 is no effect, 100 is complete control): 0
corn; [7]
  Plant response rating, Corn: 0
corn; 500 g ai/ha
  Corn plant response rating (0 to 100 scale, 0 is no effect, 100 is complete control): 0
blackgrass; [7]
  Plant response rating, Blackgrass: 0
blackgrass; 500 g ai/ha
  Blackgrass plant response rating (0 to 100 scale, 0 is no effect, 100 is complete control): 20
galium; [7]
  Plant response rating, Galium: 0
galium; 500 g ai/ha
  Galium plant response rating (0 to 100 scale, 0 is no effect, 100 is complete control): 30
rice
  Plant response rating, Rice: 0
sedge, umbrella
  Plant response rating, Sedge, Umbrella: 0
ducksalad
  Plant response rating, Ducksalad: 100
Barnyardgrass [2]
  Plant response rating, Barnyardgrass: 60

## CSc1cccc(C2CNC(=O)C2C(=O)Nc2cccc(F)c2F)c1 (centres unmarked) [Compound 289]
Barnyardgrass [1]; [8]
  Plant response rating, Barnyardgrass: 50
Barnyardgrass [1]; [9]
  Plant response rating, Barnyardgrass: 70
Barnyardgrass [1]; [10]
  Plant response rating, Barnyardgrass: 50
Barnyardgrass [1]; [11]
  Plant response rating, Barnyardgrass: 80
kochia; [8]
  Plant response rating, Kochia: 0
kochia; [9]
  Plant response rating, Kochia: 0
kochia; [10]
  Plant response rating, Kochia: 0
kochia; [11]
  Plant response rating, Kochia: 0
ragweed; [8]
  Plant response rating, Ragweed: 0
ragweed; [9]
  Plant response rating, Ragweed: 0
ragweed; [10]
  Plant response rating, Ragweed: 0
ragweed; [11]
  Plant response rating, Ragweed: 0
ryegrass, Italian; [8]
  Plant response rating, Ryegrass, Italian: 0
ryegrass, Italian; [9]
  Plant response rating, Ryegrass, Italian: 0
ryegrass, Italian; [10]
  Plant response rating, Ryegrass, Italian: 0
ryegrass, Italian; [12]
  Ryegrass, Italian plant response rating: 0
Giant foxtail; [8]
  Plant response rating, Foxtail, Giant: 30
Giant foxtail; [9]
  Plant response rating, Foxtail, Giant: 60
Giant foxtail; [10]
  Plant response rating, Foxtail, Giant: 60
Giant foxtail; [11]
  Plant response rating, Foxtail, Giant: 90
pigweed; [8]
  Plant response rating, Pigweed: 0
pigweed; [9]
  Plant response rating, Pigweed: 0
pigweed; [11]
  Plant response rating, Pigweed: 0
wheat; [13]
  Plant response rating, Wheat: 0
wheat; [14]
  Plant response rating, Wheat: 0
corn; [13]
  Plant response rating, Corn: 0
corn; [14]
  Plant response rating, Corn: 0
blackgrass; [13]
  Plant response rating, Blackgrass: 0
blackgrass; [14]
  Plant response rating, Blackgrass: 0
galium; [13]
  Plant response rating, Galium: 0
galium; [14]
  Plant response rating, Galium: 0
rice
  Plant response rating, Rice: 20
sedge, umbrella
  Plant response rating, Sedge, Umbrella: 0
ducksalad
  Plant response rating, Ducksalad: 90
Barnyardgrass [2]
  Plant response rating, Barnyardgrass: 30

## CSc1cccc(C2CNC(=O)C2C(=O)Nc2ccccc2F)c1 (centres unmarked) [Compound 287]
Barnyardgrass [1]; [8]
  Plant response rating, Barnyardgrass: 50
Barnyardgrass [1]; [9]
  Plant response rating, Barnyardgrass: 80
Barnyardgrass [1]; [10]
  Plant response rating, Barnyardgrass: 50
Barnyardgrass [1]; [11]
  Plant response rating, Barnyardgrass: 80
kochia; [8]
  Plant response rating, Kochia: 0
kochia; [9]
  Plant response rating, Kochia: 0
kochia; [10]
  Plant response rating, Kochia: 0
kochia; [11]
  Plant response rating, Kochia: 0
ragweed; [8]
  Plant response rating, Ragweed: 0
ragweed; [9]
  Plant response rating, Ragweed: 0
ragweed; [10]
  Plant response rating, Ragweed: 0
ragweed; [11]
  Plant response rating, Ragweed: 0
ryegrass, Italian; [8]
  Plant response rating, Ryegrass, Italian: 0
ryegrass, Italian; [9]
  Plant response rating, Ryegrass, Italian: 0
ryegrass, Italian; [10]
  Plant response rating, Ryegrass, Italian: 0
ryegrass, Italian; [12]
  Ryegrass, Italian plant response rating: 0
Giant foxtail; [8]
  Plant response rating, Foxtail, Giant: 0
Giant foxtail; [9]
  Plant response rating, Foxtail, Giant: 0
Giant foxtail; [10]
  Plant response rating, Foxtail, Giant: 50
Giant foxtail; [11]
  Plant response rating, Foxtail, Giant: 80
pigweed; [8]
  Plant response rating, Pigweed: 0
pigweed; [9]
  Plant response rating, Pigweed: 0
pigweed; [10]
  Plant response rating, Pigweed: 0
pigweed; [11]
  Plant response rating, Pigweed: 0
wheat; [13]
  Plant response rating, Wheat: 0
wheat; [14]
  Plant response rating, Wheat: 0
corn; [13]
  Plant response rating, Corn: 0
corn; [14]
  Plant response rating, Corn: 0
blackgrass; [13]
  Plant response rating, Blackgrass: 0
blackgrass; [14]
  Plant response rating, Blackgrass: 0
galium; [13]
  Plant response rating, Galium: 0
galium; [14]
  Plant response rating, Galium: 0
rice
  Plant response rating, Rice: 0
sedge, umbrella
  Plant response rating, Sedge, Umbrella: 0
ducksalad
  Plant response rating, Ducksalad: 75
Barnyardgrass [2]
  Plant response rating, Barnyardgrass: 30

## O=C1NCC(c2ccc3c(c2)OC(F)(F)O3)C1C(=O)Nc1ccc(F)c(F)c1F (racemic) [Compound 162]
Barnyardgrass [1]; [3]
  Plant response rating, Barnyardgrass: 90
Barnyardgrass [1]; [15]
  Plant response rating, Barnyardgrass: 70
Barnyardgrass [1]; Postemergence, 500 g ai/ha
  Barnyardgrass plant response rating (0 to 100 scale, 0 is no effect, 100 is complete control): 90
Barnyardgrass [1]; [5]
  Plant response rating, Barnyardgrass: 90
kochia; [3]
  Plant response rating, Kochia: 50
kochia; [15]
  Plant response rating, Kochia: 40
kochia; Postemergence, 500 g ai/ha
  Kochia plant response rating (0 to 100 scale, 0 is no effect, 100 is complete control): 70
kochia; [11]
  Plant response rating, Kochia: 60
ragweed; [3]
  Plant response rating, Ragweed: 0
ragweed; [15]
  Plant response rating, Ragweed: 0
ragweed; Postemergence, 500 g ai/ha
  Ragweed plant response rating (0 to 100 scale, 0 is no effect, 100 is complete control): 40
ragweed; [11]
  Plant response rating, Ragweed: 60
ryegrass, Italian; [3]
  Plant response rating, Ryegrass, Italian: 0
ryegrass, Italian; [15]
  Plant response rating, Ryegrass, Italian: 0
ryegrass, Italian; Postemergence, 500 g ai/ha
  Ryegrass, Italian plant response rating (0 to 100 scale, 0 is no effect, 100 is complete control): 50
ryegrass, Italian; [11]
  Plant response rating, Ryegrass, Italian: 50
Giant foxtail; [3]
  Plant response rating, Foxtail, Giant: 80
Giant foxtail; [15]
  Plant response rating, Foxtail, Giant: 90
Giant foxtail; Postemergence, 500 g ai/ha
  Foxtail, Giant plant response rating (0 to 100 scale, 0 is no effect, 100 is complete control): 90
Giant foxtail; [6]
  Plant response rating, Foxtail, Giant: 90
pigweed; [3]
  Plant response rating, Pigweed: 60
pigweed; [15]
  Plant response rating, Pigweed: 20
pigweed; Postemergence, 500 g ai/ha
  Pigweed plant response rating (0 to 100 scale, 0 is no effect, 100 is complete control): 70
pigweed; [11]
  Plant response rating, Pigweed: 80
wheat; [16]
  Plant response rating, Wheat: 0
wheat; 500 g ai/ha
  Wheat plant response rating (0 to 100 scale, 0 is no effect, 100 is complete control): 50
corn; [16]
  Plant response rating, Corn: 30
corn; 500 g ai/ha
  Corn plant response rating (0 to 100 scale, 0 is no effect, 100 is complete control): 60
blackgrass; [16]
  Plant response rating, Blackgrass: 50
blackgrass; 500 g ai/ha
  Blackgrass plant response rating (0 to 100 scale, 0 is no effect, 100 is complete control): 50
galium; [16]
  Plant response rating, Galium: 30
galium; 500 g ai/ha
  Galium plant response rating (0 to 100 scale, 0 is no effect, 100 is complete control): 70
rice
  Plant response rating, Rice: 0
sedge, umbrella
  Plant response rating, Sedge, Umbrella: 0
ducksalad
  Plant response rating, Ducksalad: 100
Barnyardgrass [2]
  Plant response rating, Barnyardgrass: 75

Source: patent US10294202B2, “Pyrrolidinones as herbicides” (FMC Corporation, priority 2013, dated 2019)
